Molecules are shown by their SMILES.

Data set [1] concerns the target T1, ASGPR (Mus musculus, UniProt P24721+P34927).
T1 construct: host or cells: mouse liver cells (hepatocytes) cultured on 24-well plates
T1 sequence (P34927 1-284): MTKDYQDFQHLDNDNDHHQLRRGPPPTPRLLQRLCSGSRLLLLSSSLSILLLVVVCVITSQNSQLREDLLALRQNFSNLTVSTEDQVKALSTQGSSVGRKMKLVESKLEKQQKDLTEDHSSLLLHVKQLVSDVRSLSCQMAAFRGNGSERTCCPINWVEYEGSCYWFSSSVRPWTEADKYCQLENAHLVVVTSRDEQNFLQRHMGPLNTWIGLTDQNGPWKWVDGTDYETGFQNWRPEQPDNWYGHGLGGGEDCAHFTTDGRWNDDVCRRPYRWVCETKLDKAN
T1 sequence (P24721 1-301): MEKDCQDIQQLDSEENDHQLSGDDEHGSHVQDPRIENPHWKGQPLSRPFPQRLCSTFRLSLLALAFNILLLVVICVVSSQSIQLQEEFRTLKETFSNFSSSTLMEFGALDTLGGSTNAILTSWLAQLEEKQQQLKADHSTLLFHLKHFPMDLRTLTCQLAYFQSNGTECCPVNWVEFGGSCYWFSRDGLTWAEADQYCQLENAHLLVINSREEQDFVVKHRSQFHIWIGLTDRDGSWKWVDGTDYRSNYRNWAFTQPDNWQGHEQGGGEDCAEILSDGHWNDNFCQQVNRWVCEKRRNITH
Put plainly: Binding strength between carbohydrate chain peptide and mice liver cell (competition with Eu-ASOR, time-resolved fluorescence). The source says: The binding strength between carbohydrate chain peptide and a mice liver cell uses Eu-asialo-orosomucoid (Eu-ASOR) as a reference substance and compares whether carbohydrate chain peptides such as DCM-Lys(ah-GalNAc)3, […] larger binding capacity to a mice liver cell than Eu-ASOR. IC50 (50% inhibitory concentration) represents the binding capacity. Smaller IC50 represents larger binding capacity. Mice liver cells are purchased from Lonza biotechnology company in State of Maryland, which are placed and cultivated on a 24-well plate in advance. Reaction takes place at each well. […] Perform oscillating culture for 1 hours. Use an ammonium-chloride-containing liver cell base culture medium to wash away substances that are not bonded to liver cells. Perform time-resolved fluorescence analysis, namely, add an enhancer (15 μM of β-naphthoyl trifluoroacetone, 50 μM of tri-n-octyl-phosphine oxide, 0.1M of potassium hydrogen phthalate, and 0.1% of Triton X-100 in 0.1M of acetic acid, pH of 3.2). The enhancer forms an Eu chelate with Eu^3+ and emits light of 615 nm when energized by 340 nm. The logarithmic value of the concentration of carbohydrate chain peptide is taken as X-axis, and the emitted fluorescence value is taken as the Y-axis. […] However, the binding between DCM-Lys(Gah-GalNAc)3 and ASGPR is 10 times as large as the binding strength of YEE and YDD.

The conditions of data set [2]: in vivo. The source says: Tyrosine-glutamyl-glutamic acid (YEE) and tyrosine-aspartyl-aspartic acid (YDD) are first proposed by Lee et al. (1983). Tyrosine-glutamyl-glutamyl-glutamic acid (YEEE) is an improved invention by Chen et al. (ROC Patent TW1240002, 2000). The binding force between double-chain galactose amino peptide proposed by Lee et al. in 1983 and a liver cell is 1000 times as large as that of single-chain galactose amino peptide. The binding force between triple-chain galactose amino peptide and a liver cell is 10^6 times as large as that of sing-chain galactose amino peptide. Our laboratory has synthesized DTPA-hexa-lactose with a single lysine derivative earlier, which has very high specific radioactivity with the In-111 label and has a very desirable effect of accumulation at the liver in animal experiments. However, our animal experiments have shown that In-111-DTPA-hexa-lactose stays at the liver very stably for at least half an hour, and it is actually not easy to observe changes of absorption of the gall bladder in the entire imaging process. Therefore, In-111-DTPA-hexa-lactose is suitable for use in remaining liver function test or measurement of remaining liver after liver resection, but is not very suitable for use as a gall bladder imaging agent.

Regarding `NCCCCCC(=O)N[C@@H](CC(=O)NCCCC[C@@H](C(=O)NCCCCCCO[C@@H]1O[C@H](CO)[C@@H](O[C@@H]2O[C@H](CO)[C@H](O)[C@H](O)[C@H]2O)[C@H](O)[C@H]1O)N(CC(=O)NCCCCCCO[C@@H]1O[C@H](CO)[C@@H](O[C@@H]2O[C@H](CO)[C@H](O)[C@H](O)[C@H]2O)[C@H](O)[C@H]1O)CC(=O)NCCCCCCO[C@@H]1O[C@H](CO)[C@@H](O[C@@H]2O[C@H](CO)[C@H](O)[C@H](O)[C@H]2O)[C@H](O)[C@H]1O)C(=O)NCCCC[C@@H](C(=O)NCCCCCCO[C@@H]1O[C@H](CO)[C@@H](O[C@@H]2O[C@H](CO)[C@H](O)[C@H](O)[C@H]2O)[C@H](O)[C@H]1O)N(CC(=O)NCCCCCCO[C@@H]1O[C@H](CO)[C@@H](O[C@@H]2O[C@H](CO)[C@H](O)[C@H](O)[C@H]2O)[C@H](O)[C@H]1O)CC(=O)NCCCCCCO[C@@H]1O[C@H](CO)[C@@H](O[C@@H]2O[C@H](CO)[C@H](O)[C@H](O)[C@H]2O)[C@H](O)[C@H]1O` [AHA-Asp[DCM-Lys(ahLac)3]2], the “binding strength to ASGPR compared with YEE and YDD (in words)” value in data set [1] (compared with YEE and YDD) is “same binding strength as YEE and YDD”. A word on the IC50: it is the concentration at which inhibition is half-maximal. Lower therefore signals greater potency in that assay. In the case of `CC(=O)N[C@H]1[C@H](OCCCCCCNC(=O)CNC(=O)CN(CC(=O)NCC(=O)NCCCCCCO[C@@H]2O[C@H](CO)[C@H](O)[C@H](O)[C@H]2NC(C)=O)[C@@H](CCCCN)C(=O)NCC(=O)NCCCCCCO[C@@H]2O[C@H](CO)[C@H](O)[C@H](O)[C@H]2NC(C)=O)O[C@H](CO)[C@H](O)[C@@H]1O` [DCM-Lys(GahGalNAc)3], in data set [1] (compared with YEE and YDD), the “binding strength to ASGPR relative to YEE and YDD” value is recorded as 10 times. Besides, the IC50 in data set [1] (mice liver cells, 10 nM Eu-ASOR as reference substance, 1 hour culture) came to 1 nM. `O=C(O)CN(CCN(CC(=O)O)CC(=O)O)CCN(CC(=O)O)CC(=O)NCCCCCC(=O)N[C@@H](CC(=O)NCCCC[C@@H](C(=O)NCCCCCCO[C@@H]1O[C@H](CO)[C@@H](O[C@@H]2O[C@H](CO)[C@H](O)[C@H](O)[C@H]2O)[C@H](O)[C@H]1O)N(CC(=O)NCCCCCCO[C@@H]1O[C@H](CO)[C@@H](O[C@@H]2O[C@H](CO)[C@H](O)[C@H](O)[C@H]2O)[C@H](O)[C@H]1O)CC(=O)NCCCCCCO[C@@H]1O[C@H](CO)[C@@H](O[C@@H]2O[C@H](CO)[C@H](O)[C@H](O)[C@H]2O)[C@H](O)[C@H]1O)C(=O)NCCCC[C@@H](C(=O)NCCCCCCO[C@@H]1O[C@H](CO)[C@@H](O[C@@H]2O[C@H](CO)[C@H](O)[C@H](O)[C@H]2O)[C@H](O)[C@H]1O)N(CC(=O)NCCCCCCO[C@@H]1O[C@H](CO)[C@@H](O[C@@H]2O[C@H](CO)[C@H](O)[C@H](O)[C@H]2O)[C@H](O)[C@H]1O)CC(=O)NCCCCCCO[C@@H]1O[C@H](CO)[C@@H](O[C@@H]2O[C@H](CO)[C@H](O)[C@H](O)[C@H]2O)[C@H](O)[C@H]1O` [In-111-DTPA-hexa-lactose, metal not drawn]: the “time it stays at the liver very stably” value in data set [2] is recorded as “at least half an hour”.

These data come from patent US9226982B2, “Gall bladder imaging agent and its preparation method” (INSTITUTE OF NUCLEAR ENERGY RESEARCH ATOMIC ENERGY COUNCIL, …, priority 2012, dated 2016).
